Measured values: US8409603B2, “Compositions and methods for tissue engineering, tissue regeneration and wound healing” (University of South Carolina, priority 2009, dated 2013)

System: lens epithelial cells
Test: Toroid (ring) formation by cells added onto polymerized collagen gel
Format: cell-based
Conditions: addition to the culture fluid of 3-30 ng
Protocol: FIG. 1 illustrates examples of toroids generated from EMT-primed lens epithelial cells; a-c) a control series of 3 toroids generated in regular media, d-f) a control series of 3 toroids generated in media containing a control peptide and g-h) a series of 3 toroids generated in media containing a an ACT1 peptide in combination with Tgfb1.
In a variation on this protocol, cells were added onto an already polymerized gel and the gel was detached after 24 hours of culture. Following a subsequent 24 hours it was noted that quite unlike what was observed when cells were pre-mixed into the gel, cells added post-polymerization always formed into uniform circular rings of repeatable diameter (FIG. 1b). […] Confocal microscopy of rhodamine-phalloidin and nuclear-DAPI stained gels indicated a two-phase structure with cells undergoing recruitment at the outer rim arranging in radial spoke-like arrays (FIG. 1e), whereas cells in on the inner rim organized into a contractile ring (FIG. 1f). […] This experiment was repeated with REC cells (Wada A M, Smith T K, Osler M E, Reese D E, Bader D M. Epicardial/Mesothelial cell line retains vasculogenic potential of embryonic epicardium. Circ Res. 2003 Mar. 21; 92(5):525-31. Epub 2003 Feb. 6, incorporated by reference herein), a rat […] with similar effect. […]

How did the “ring size of toroid” value turn out when TGF-b was run?
The value was “predictably altered”.
